# Where “and” joins values, the source holds several entries; their conditions need not be identical. Equal values may be shown once. Entries after “also recorded” stand apart in the source; their conditions may differ. Read-outs that look alike come from different tables or passages of the source.
# Tests used:
# [1] = system: T4 lymphocytes (CEM cell line); experiment: NCI anti-HIV screen, toxicity control in uninfected cells; type: cell-based
# poly(dA-dT) = experiment: ethidium displacement assay, poly(dA-dT); conditions: relative to ethidium 9.5 × 10^6 M^-1, average of repeat measurements
# HBV = experiment: inhibition of HBV DNA replication in 2.2.15 cell cultures; type: cell-based; conditions: for INT[…] DNA MONO.: 24 hours following the 9th day of treatment; for INT[…] DNA MONO. / HBV VIRION DNA DAY 0 / HBV VIRION DNA DAY 6 / HBV VIRION DNA DAY 9: single well
# 2.2.15 cells = experiment: toxicity analysis, neutral red dye uptake in 2.2.15 cells; conditions: triplicate, ± standard deviation
# [2] = solubility in DMSO, MeOH, H2O; type: physicochemical
# [3] = dose 3.02 × 10^-4 Molar, Table IX
# [4] = dose 3.03 × 10^-5 Molar, Table IX
# [5] = dose 3.03 × 10^-6 Molar, Table IX
# [6] = dose 3.04 × 10^-7 Molar, Table IX
# [7] = dose 9.54 × 10^-5 Molar, Table IX
# [8] = dose 9.57 × 10^-4 Molar, Table IX
# [9] = dose 9.59 × 10^-6 Molar, Table IX
# [10] = dose 9.61 × 10^-7 Molar, Table IX
# [11] = 10 μM, listed as Compound 14, dihydrochloride
# [12] = 50 μM, listed as Compound 14, dihydrochloride
# [13] = dose 1.79 × 10^-6 Molar, Table VI
# [14] = dose 1.79 × 10^-7 Molar, Table VI
# [15] = dose 1.79 × 10^-8 Molar, Table VI
# [16] = dose 5.66 × 10^-6 Molar, Table VI
# [17] = dose 5.67 × 10^-7 Molar, Table VI
# [18] = dose 5.68 × 10^-8 Molar, Table VI
# [19] = dose 5.68 × 10^-9 Molar, Table VI
# [20] = HIV-1 infected CEM cells, 6 days, XTT, Tables VI-X
# [21] = dose 1.34 × 10^-3 Molar, Table VII
# [22] = dose 1.34 × 10^-4 Molar, Table VII
# [23] = dose 1.35 × 10^-5 Molar, Table VII
# [24] = dose 1.35 × 10^-6 Molar, Table VII
# [25] = dose 4.26 × 10^-4 Molar, Table VII
# [26] = dose 4.26 × 10^-5 Molar, Table VII
# [27] = dose 4.27 × 10^-6 Molar, Table VII
# [28] = dose 4.28 × 10^-7 Molar, Table VII
compound,measurement,setting,value
Cl.Cl.Cn1cc(NC(=O)c2cc(NC(=O)/C=C\C(=O)Nc3cc(C(=O)Nc4cc(C(=O)NCCC(=N)N)n(C)c4)n(C)c3)cn2C)cc1C(=O)NCCC(=N)N [Compound 22b],[…] % of Control,[1]; [3],-0.86 % of Control
same,[…] % of Control,[1]; [4],112.05 % of Control
same,[…] % of Control,[1]; [5],103.19 % of Control
same,[…] % of Control,[1]; [6],100.16 % of Control
same,[…] % of Control,[1]; [7],94.16 % of Control
same,[…] % of Control,[1]; [8],5.40 % of Control
same,[…] % of Control,[1]; [9],112.20 % of Control
same,[…] % of Control,[1]; [10],100.02 % of Control
same,Kapp,poly(dA-dT),3.8e+07 M⁻¹
same,INT[…] DNA MONO.,HBV; [11],2.5 pg/μg CELL DNA and 2.2 pg/μg CELL DNA and 2.3 pg/μg CELL DNA and 2.1 pg/μg CELL DNA
same,HBV VIRION DNA DAY 0,HBV; [11],50 pg/ml CULTURE MEDIUM and 61 pg/ml CULTURE MEDIUM and 55 pg/ml CULTURE MEDIUM and 67 pg/ml CULTURE MEDIUM
same,HBV VIRION DNA DAY 6,HBV; [11],110 pg/ml CULTURE MEDIUM and 120 pg/ml CULTURE MEDIUM and 77 pg/ml CULTURE MEDIUM and 87 pg/ml CULTURE MEDIUM
same,HBV VIRION DNA DAY 9,HBV; [11],21 pg/ml CULTURE MEDIUM and 25 pg/ml CULTURE MEDIUM and 22 pg/ml CULTURE MEDIUM and 20 pg/ml CULTURE MEDIUM
same,INT[…] DNA MONO.,HBV; [12],1.9 pg/μg CELL DNA and 2.0 pg/μg CELL DNA and 2.3 pg/μg CELL DNA
same,HBV VIRION DNA DAY 0,HBV; [12],71 pg/ml CULTURE MEDIUM and 89 pg/ml CULTURE MEDIUM and 51 pg/ml CULTURE MEDIUM and 92 pg/ml CULTURE MEDIUM
same,HBV VIRION DNA DAY 6,HBV; [12],26 pg/ml CULTURE MEDIUM and 27 pg/ml CULTURE MEDIUM and 36 pg/ml CULTURE MEDIUM and 37 pg/ml CULTURE MEDIUM
same,HBV VIRION DNA DAY 9,"HBV; 50 μM, zero = undetectable, cutoff 0.1 pg/ml",1 pg/ml CULTURE MEDIUM
same,effect on HBV replication (in words),"HBV; tested at 50 and 10 μM, compared with 2',3'-ddC, listed as 14, dihydrochloride",just slightly less than that observed with the control; also recorded: potent inhibitors
same,INFECTED RESPONSE % of Control,HIV-1; [3],-0.29 % of Control
same,INFECTED RESPONSE % of Control,HIV-1; [4],114.32 % of Control
same,INFECTED RESPONSE % of Control,HIV-1; [5],44.03 % of Control
same,INFECTED RESPONSE % of Control,HIV-1; [6],28.75 % of Control
same,INFECTED RESPONSE % of Control,HIV-1; [7],84.02 % of Control
same,INFECTED RESPONSE % of Control,HIV-1; [8],-0.14 % of Control
same,INFECTED RESPONSE % of Control,HIV-1; [9],115.19 % of Control
same,INFECTED RESPONSE % of Control,HIV-1; [10],32.14 % of Control
same,Anti-HIV-1 Activity (National Cancer Institute Designation),"HIV-1; inactive, moderate or active",Active
same,NEUTRAL RED DYE UPTAKE,2.2.15 cells; 10 μg/ml,99 ± 2 % OF CONTROL
same,NEUTRAL RED DYE UPTAKE,2.2.15 cells; 30 μg/ml,98 ± 1 % OF CONTROL
same,NEUTRAL RED DYE UPTAKE,2.2.15 cells; 100 μg/ml,99 ± 1 % OF CONTROL
same,NEUTRAL RED DYE UPTAKE,2.2.15 cells; 300 μg/ml,85 ± 2 % OF CONTROL
same,Solubility in DMSO,[2]; DMSO,good
same,Solubility in MeOH,[2]; MeOH,good
"Cl.Cl.Cn1cc(NC(=O)c2cc(NC(=O)c3ccc(C(=O)Nc4cc(C(=O)Nc5cc(C(=O)NCCC(=N)N)n(C)c5)n(C)c4)cc3)cn2C)cc1C(=O)NCCC(=N)N [Compound 19b, N,N'-di[1-methyl-2-[1-methyl-2-carboxamido(3-propionamidine)-4-pyrrole]-4-pyrrolyl] terephthalamide dihydrochloride]",[…] % of Control,[1],192.17 % of Control
same,IC50,[1]; Table XI,17.9 µM
same,[…] % of Control,[1]; [13],136.50 % of Control
same,[…] % of Control,[1]; [14],92.72 % of Control
same,[…] % of Control,[1]; [15],92.56 % of Control
same,[…] % of Control,[1]; [16],164.46 % of Control
same,[…] % of Control,[1]; [17],88.21 % of Control
same,[…] % of Control,[1]; [18],94.69 % of Control
same,[…] % of Control,[1]; [19],68.62 % of Control
same,IC50,"[1]; uninfected CEM cells, 6 days, XTT, Tables VI-X",> 1.79 × 10^-5 Molar
same,Kapp,poly(dA-dT),4.3e+07 M⁻¹
same,EC50,HIV-1; [20],2.08 µM
same,EC50,HIV-1; Table XI,1.21 µM
same,INFECTED RESPONSE % of Control,"HIV-1; dose 1.79 × 10^-5 Molar, Table VI",167.25 % of Control
same,INFECTED RESPONSE % of Control,HIV-1; [13],51.73 % of Control
same,INFECTED RESPONSE % of Control,HIV-1; [14],29.97 % of Control
same,INFECTED RESPONSE % of Control,HIV-1; [15],33.00 % of Control
same,INFECTED RESPONSE % of Control,HIV-1; [16],134.54 % of Control
same,INFECTED RESPONSE % of Control,HIV-1; [17],28.86 % of Control
same,INFECTED RESPONSE % of Control,HIV-1; [18],23.70 % of Control
same,INFECTED RESPONSE % of Control,HIV-1; [19],39.64 % of Control
"Cl.Cl.Cn1cc(NC(=O)c2cc(NC(=O)CCCCC(=O)Nc3cc(C(=O)Nc4cc(C(=O)NCCC(=N)N)n(C)c4)n(C)c3)cn2C)cc1C(=O)NCCC(=N)N [Compound 7, N,N'-Di(1-methyl-2-[1-methyl-2-carboxamido(3-proprionamidine)-4-pyrrole]-4-pyrrolyl) adipamide dihydrochloride]",INT[…] DNA MONO.,"HBV; 10 μM, dihydrochloride",2.1 pg/μg CELL DNA and 2.3 pg/μg CELL DNA and 2.2 pg/μg CELL DNA and 2.6 pg/μg CELL DNA
same,HBV VIRION DNA DAY 0,"HBV; 10 μM, dihydrochloride",75 pg/ml CULTURE MEDIUM and 92 pg/ml CULTURE MEDIUM and 60 pg/ml CULTURE MEDIUM and 55 pg/ml CULTURE MEDIUM
same,HBV VIRION DNA DAY 6,"HBV; 10 μM, dihydrochloride",68 pg/ml CULTURE MEDIUM and 67 pg/ml CULTURE MEDIUM and 57 pg/ml CULTURE MEDIUM and 50 pg/ml CULTURE MEDIUM
same,HBV VIRION DNA DAY 9,"HBV; 10 μM, dihydrochloride",56 pg/ml CULTURE MEDIUM and 57 pg/ml CULTURE MEDIUM and 87 pg/ml CULTURE MEDIUM and 58 pg/ml CULTURE MEDIUM
same,INT[…] DNA MONO.,"HBV; 50 μM, dihydrochloride",2.7 pg/μg CELL DNA and 2.5 pg/μg CELL DNA and 2.3 pg/μg CELL DNA
same,HBV VIRION DNA DAY 6,"HBV; 50 μM, dihydrochloride",67 pg/ml CULTURE MEDIUM and 75 pg/ml CULTURE MEDIUM and 83 pg/ml CULTURE MEDIUM and 69 pg/ml CULTURE MEDIUM
same,HBV VIRION DNA DAY 9,"HBV; 50 μM, zero = undetectable, cutoff 0.1 pg/ml, dihydrochloride",63 pg/ml CULTURE MEDIUM and 68 pg/ml CULTURE MEDIUM and 77 pg/ml CULTURE MEDIUM and 66 pg/ml CULTURE MEDIUM
same,NEUTRAL RED DYE UPTAKE,2.2.15 cells; 30 μg/ml,102 ± 1 % OF CONTROL
same,NEUTRAL RED DYE UPTAKE,2.2.15 cells; 300 μg/ml,98 ± 2 % OF CONTROL
same,Solubility in H2O,[2]; H2O,good
"Cl.Cl.Cn1cc(NC(=O)c2cc(NC(=O)c3cccc(C(=O)Nc4cc(C(=O)Nc5cc(C(=O)NCCC(=N)N)n(C)c5)n(C)c4)c3)cn2C)cc1C(=O)NCCC(=N)N [Compound 20b, N,N'-di[1-methyl-2-[1-methyl-2-carboxamido(3-propionamidine)-4-pyrrole]-4-pyrrolyl] isophthalamide dihydrochloride]",[…] % of Control,[1]; [21],10.39 % of Control
same,[…] % of Control,[1]; [22],142.80 % of Control
same,[…] % of Control,[1]; [23],117.76 % of Control
same,[…] % of Control,[1]; [24],131.95 % of Control
same,[…] % of Control,[1]; [25],-0.29 % of Control
same,[…] % of Control,[1]; [26],123.27 % of Control
same,[…] % of Control,[1]; [27],123.64 % of Control
same,[…] % of Control,[1]; [28],116.38 % of Control
same,Kapp,poly(dA-dT),4.9e+07 M⁻¹
same,EC50,HIV-1; [20],3.55 µM
same,INFECTED RESPONSE % of Control,HIV-1; [21],4.26 % of Control
same,INFECTED RESPONSE % of Control,HIV-1; [22],63.57 % of Control
same,INFECTED RESPONSE % of Control,HIV-1; [23],117.45 % of Control
same,INFECTED RESPONSE % of Control,HIV-1; [24],29.25 % of Control
same,INFECTED RESPONSE % of Control,HIV-1; [25],0.02 % of Control
same,INFECTED RESPONSE % of Control,HIV-1; [26],120.68 % of Control
same,INFECTED RESPONSE % of Control,HIV-1; [27],64.76 % of Control
same,INFECTED RESPONSE % of Control,HIV-1; [28],48.47 % of Control
